From US10183944B2 (Asana Biosciences, LLC, priority 2011, dated 2019) come the findings set out here.

In test [1] the target is Syk (356-635 amino acids) catalytic domain (Homo sapiens (Human), UniProt P43405). The test is described as follows: Inhibition of enzymatic Syk kinase activity (radiometric). The class given is biochemical. As to conditions: read-out: IC50 Syk. Summed up: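 Radiometric filter-binding format: 32P transfer from γ-32P-ATP onto pG4T, scintillation-counted after acid washes of P81 paper. Syk kinase domain (356-635), 0.035–7.5 ng per reaction, was exposed to compound for 30 minutes at room temperature before a 10-minute, 30° C. reaction with ATP (100 μM stock). Inhibition derived from counts with versus without compound.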

The target of test [2] is JAK2 (Homo sapiens (Human), UniProt O60674). The test is described as follows: Inhibition of enzymatic JAK2 kinase activity (TR-FRET). The class given is biochemical. As to conditions: read-out: IC50 JAK. The source says: The objective of this assay was to screen compounds in a Time-resolved fluorescence resonance energy transfer (TR-FRET) Enzymatic assay method for their potential to inhibit JAK2 (Janus kinase) activity.
TR-FRET assays are homogeneous proximity assays where Eu-labeled antiphosphotyrosine antibody binds to the phosphorylated substrates labeled with Ulight fluorescence acceptor. Eu can transfer energy to Ulight accepter in the complex and the interaction of two dye-labeled binding partners is detected by the energy transfer between a donor and an acceptor dye, and the subsequent light emission by the acceptor dye. The intensity of the light emission is proportional to the level of Ulight peptide phosphorylation.
Two μL of 10% DMSO in blank, substrate control and positive control wells and 2 μL of test compound in test wells was added. Thirteen μL of assay buffer in blank and substrate control wells and 13 μL of Enzyme buffer mix in positive and test wells was added. The reaction mixture was incubated for 30 minutes at RT on a plate shaker. Ultra Light-pGT substrate (5 μL) [poly Glu-Tyr (4:1) labeled with U Light TM dye, a tyrosine kinase substrate] and ATP mix was added to all wells. The reaction plate was incubated for 60 minutes at RT on a plate shaker. The reaction was stopped by adding 40 mM EDTA (10 μL) in buffer. Ten μL of antibody was added to all the wells. The plate was read in a Wallac® 1420 Multilabel Counter Victor 3 instrument (Ex: 340 nm Em: 615 & 665 nm) The following calculations were made:
F@ 665 Value-Buffer blank
F@ 615 Value-Buffer blank
Ratio of F@665/F@615-Substrate Blank
% Activity=(Test Sample/Positive control)*100%
Inhibition=(100−% Activity)

Counter-ions that a name gives are not always drawn.

Sequence of JAK2 (O60674 808-1132): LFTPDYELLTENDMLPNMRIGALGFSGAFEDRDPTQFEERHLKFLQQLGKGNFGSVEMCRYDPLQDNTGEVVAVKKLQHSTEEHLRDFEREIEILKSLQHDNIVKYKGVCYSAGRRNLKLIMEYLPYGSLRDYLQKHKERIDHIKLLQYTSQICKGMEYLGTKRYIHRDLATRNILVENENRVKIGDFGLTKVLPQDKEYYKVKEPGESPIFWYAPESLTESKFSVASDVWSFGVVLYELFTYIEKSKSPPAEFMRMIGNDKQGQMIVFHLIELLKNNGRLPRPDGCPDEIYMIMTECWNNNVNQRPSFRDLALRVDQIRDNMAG

In the case of `O=c1[nH]ncc2nc(N3CCCCCC3)nc(Nc3ccc(N4CCCC(O)C4)cc3)c12` (centres unmarked) [Example 281, 2-(azepan-1-yl)-4-((4-(3-hydroxypiperidin-1-yl)phenyl)amino) pyrimido[4,5-d]pyridazin-5(6H)-one], the figures for the half-inhibitory concentration (IC50) in test [1] and in test [2] were less than 50 nM and less than 10 nM, respectively.
The matching figures for `O=c1[nH]ncc2nc(N3CCCCCC3)nc(Nc3ccc(OCCN4CCNCC4)nc3)c12` [Example 182, 2-(azepan-1-yl)-4-((6-(2-(piperazin-1-yl)ethoxy)pyridin-3-yl)amino)pyrimido[4,5-d]pyridazin-5(6H)-one]: less than 100 nM and less than 10 nM.
The matching figures for `O=c1[nH]ncc2nc(N3CCCCCC3)nc(Nc3ccc(N4CCCC(CO)C4)cc3)c12` (centres unmarked) [Example 285, 2-(azepan-1-yl)-4-((4-(3-(hydroxymethyl)piperidin-1-yl)phenyl)amino) pyrimido[4,5-d]pyridazin-5(6H)-one]: less than 50 nM and less than 50 nM.
The matching figures for `N#CCC1CCN(c2nc(Nc3ccc(OCCCO)cc3)c3c(=O)[nH]ncc3n2)CC1` [Example 295, 2-(1-(4-((4-(3-hydroxypropoxy)phenyl)amino)-5-oxo-5,6-dihydropyrimido[4,5-d]pyridazin-2-yl)piperidin-4-yl) acetonitrile]: less than 50 nM and less than 50 nM.
Take `O=c1[nH]ncc2nc(N3CCCCCC3)nc(Nc3ccc(OCCN4CCN(CCO)CC4)cc3)c12` [Example 239, 2-(azepan-1-yl)-4-((4-(2-(4-(2-hydroxyethyl)piperazin-1-yl)ethoxy)phenyl)amino)pyrimido[4,5-d]pyridazin-5(6H)-one]: the figures for the IC50 in test [1] and in test [2] were less than 100 nM and less than 50 nM, respectively.
Take `O=c1[nH]ncc2nc(N3CCCCCC3)nc(Nc3ccc(CCCO)cc3)c12` [Example 308, 2-(azepan-1-yl)-4-((4-(3-hydroxypropyl)phenyl)amino)pyrimido[4,5-d]pyridazin-5(6H)-one]: the IC50 is less than 50 nM in test [1] and less than 10 nM in test [2].
Take `O=C(O)C1CC12CCN(c1ccc(Nc3nc(N4CCCCCC4)nc4cn[nH]c(=O)c34)cn1)CC2` (centres unmarked) [Example 134]: the IC50 in test [1] is less than 50 nM; in test [2], less than 10 nM.
Regarding `O=C(O)CN1CCN(c2ccc(Nc3nc(-c4ccccc4)nc4cn[nH]c(=O)c34)cc2)CC1` [Example 12, 2-(4-(4-(5-oxo-2-phenyl-5,6-dihydropyrimido[4,5-d]pyridazin-4-ylamino)phenyl)piperazin-1-yl) acetic acid], the IC50 was less than 50 nM in test [1] and less than 10 nM in test [2].
As for `N#CCC1CCN(c2ccc(Nc3nc(N4CCC(CC#N)CC4)nc4cn[nH]c(=O)c34)cn2)CC1` [Example 114, 2-(1-(5-((2-(4-(cyanomethyl)piperidin-1-yl)-5-oxo-5,6-dihydropyrimido[4,5-d]pyridazin-4-yl)amino)pyridin-2-yl)piperidin-4-yl)acetonitrile], the IC50 in test [1] was less than 10 nM; in test [2] it was less than 50 nM.
The matching figures for `CN1CCN(C(=O)COc2ccc(Nc3nc(N4CCC(CC#N)CC4)nc4cn[nH]c(=O)c34)cc2)CC1` [Example 271, 2-(1-(4-((4-(2-(4-methylpiperazin-1-yl)-2-oxoethoxy)phenyl)amino)-5-oxo-5,6-dihydropyrimido[4,5-d]pyridazin-2-yl)piperidin-4-yl)acetonitrile]: less than 10 nM and less than 50 nM.
For `O=c1[nH]ncc2nc(N3CCCCCC3)nc(Nc3ccc(N4CCNCC4)nc3)c12` [Example 221, 2-(azepan-1-yl)-4-((6-(piperazin-1-yl)pyridin-3-yl)amino)pyrimido[4,5-d]pyridazin-5(6H)-one], the IC50 was less than 50 nM in test [1] and less than 10 nM in test [2].
The matching figures for `N#CCC1CCN(c2nc(Nc3ccc(OC4CCN(CC(=O)O)CC4)cc3)c3c(=O)[nH]ncc3n2)CC1` [Example 262, 2-(4-(4-((2-(4-(cyanomethyl)piperidin-1-yl)-5-oxo-5,6-dihydropyrimido[4,5-d]pyridazin-4-yl)amino)phenoxy)piperidin-1-yl)acetic acid]: less than 50 nM and less than 10 nM.
Consider `O=C(O)[C@H]1CO[C@H](COc2ccc(Nc3nc(N4CCCCCC4)nc4cn[nH]c(=O)c34)cc2)CO1` [Example 124, (2R,5S)-5-((4-((2-(azepan-1-yl)-5-oxo-5,6-dihydropyrimido[4,5-d]pyridazin-4-yl)amino)phenoxy)methyl)-1,4-dioxane-2-carboxylic acid], for which the IC50 in test [1] and in test [2] was less than 10 nM each time.
In the case of `O=C(O)C1CC12CCN(c1ccc(Nc3nc(N4CCCCCCC4)nc4cn[nH]c(=O)c34)cc1)CC2` (centres unmarked) [Example 141, 6-(4-((2-(azocan-1-yl)-5-oxo-5,6-dihydropyrimido[4,5-d]pyridazin-4-yl)amino)phenyl)-6-azaspiro[2.5]octane-1-carboxylic acid], the IC50 in test [1] was less than 50 nM; in test [2], less than 10 nM.
The matching figures for `N#CCC1CCN(c2nc(Nc3ccc4[nH]c(=O)[nH]c4c3)c3c(=O)[nH]ncc3n2)CC1` [Example 336, 2-(1-(5-oxo-4-((2-oxo-2,3-dihydro-1H-benzo[d]imidazol-5-yl)amino)-5,6-dihydropyrimido[4,5-d]pyridazin-2-yl)piperidin-4-yl)acetonitrile]: less than 50 nM and less than 50 nM.
The matching figures for `N#CC1CCN(c2nc(Nc3ccc(CN4CCNCC4)cc3)c3c(=O)[nH]ncc3n2)CC1` [Example 56, 1-(5-oxo-4-((4-(piperazin-1-ylmethyl)phenyl)amino)-5,6-dihydropyrimido[4,5-d]pyridazin-2-yl)piperidine-4-carbonitrile hydrochloride]: greater than 100 nM and less than 50 nM.
With `O=c1[nH]ncc2nc(N3CCCCCC3)nc(Nc3ccc(OCCO)cc3)c12` [Example 294, 2-(azepan-1-yl)-4-((4-(2-hydroxyethoxy)phenyl)amino)pyrimido[4,5-d]pyridazin-5(6H)-one], the IC50 in test [1] and in test [2] was less than 50 nM throughout.
With `O=c1[nH]ncc2nc(-c3ccccc3)nc(Nc3ccc(OCCN4CCNCC4)cc3)c12` [Example 152, 2-phenyl-4-((4-(2-(piperazin-1-yl)ethoxy)phenyl)amino)pyrimido[4,5-d]pyridazin-5(6H)-one], the values for the IC50 in test [1] and in test [2] were less than 50 nM and greater than 100 nM, respectively.
The matching figures for `O=c1[nH]ncc2nc(N3CC[S+]([O-])CC3)nc(Nc3ccc(CN4CCNCC4)cc3)c12` [Example 44, 2-(1-oxidothiomorpholino)-4-((4-(piperazin-1-ylmethyl)phenyl)amino) pyrimido[4,5-d]pyridazin-5(6H)-one hydrochloride]: greater than 100 nM and greater than 100 nM.
The matching figures for `CN1CCN(c2ccc(Nc3nc(N4CCCCCC4)nc4cn[nH]c(=O)c34)cc2)CC1` [Example 247, 2-(azepan-1-yl)-4-((4-(4-methylpiperazin-1-yl)phenyl)amino)pyrimido[4,5-d]pyridazin-5(6H)-one]: less than 10 nM and less than 10 nM.
For the compound `O=c1[nH]ncc2nc(N3CCCCCC3)nc(Nc3ccc(CCO)cc3)c12` [Example 322, 2-(azepan-1-yl)-4-((4-(2-hydroxyethyl)phenyl)amino)pyrimido[4,5-d]pyridazin-5(6H)-one], the concentration for half-maximal inhibition (IC50) was less than 50 nM in test [1] and less than 10 nM in test [2].
The matching figures for `O=C(O)CC1CCN(Cc2ccc(Nc3nc(N4CCCCCC4)nc4cn[nH]c(=O)c34)cc2)CC1` [Example 77, 2-(1-(4-((2-(azepan-1-yl)-5-oxo-5,6-dihydropyrimido[4,5-d]pyridazin-4-yl)amino)benzyl)piperidin-4-yl)acetic acid]: less than 50 nM and less than 10 nM.
As for `N#CCC1CCN(c2nc(Nc3ccc(N4CCCC(CCO)C4)cc3)c3c(=O)[nH]ncc3n2)CC1` (centres unmarked) [Example 286, 2-(1-(4-((4-(3-(2-hydroxyethyl)piperidin-1-yl)phenyl)amino)-5-oxo-5,6-dihydropyrimido[4,5-d]pyridazin-2-yl)piperidin-4-yl)acetonitrile], the IC50 in test [1] and in test [2] was less than 50 nM each time.
As to `COc1ccccc1-c1nc(Nc2ccc(N3CCC4(CC3)CC4C(=O)O)cc2)c2c(=O)[nH]ncc2n1` (centres unmarked) [Example 53, 6-(4-((2-(2-methoxylphenyl)-5-oxo-5,6-dihydropyrimido[4,5-d]pyridazin-4-yl)amino)phenyl)-6-azaspiro[2.5]octane-1-carboxylic acid], the IC50 in test [1] was greater than 100 nM; in test [2], less than 100 nM.
For `CN1CCN(c2ccc(Nc3nc(N4CCCCCC4)nc4cn[nH]c(=O)c34)cn2)CC1` [Example 242, 2-(azepan-1-yl)-4-((6-(4-methylpiperazin-1-yl)pyridin-3-yl)amino)pyrimido[4,5-d]pyridazin-5(6H)-one], the IC50 in test [1] and in test [2] was less than 50 nM in each case.
